In patent US20250003970A1, “FRET ENZYMATIC SUBSTRATE AND USES THEREOF IN LUNG CANCER” (URTESTE S.A., priority 2021, published 2025):
Where “and” joins values, the source holds several entries; their conditions need not be identical. Identical values can stand only once. Starred links: 1 amine or outer side, 2 acyl side, 3 side chain; linkers in the order of their positions; H or OH if unused. Non-standard residues stand in square brackets, D forms with d. No end group written: not given here. Benzoyl(5-NH,2-NO2) = O=C(c1cc(N[*:1])ccc1[N+](=O)[O-])[*:2]; 2Abz = Nc1ccccc1C(=O)O

Tests used:
Format in all cases: biochemical, human
[1] = system: enzymatic activity specific to lung cancer in urine from a subject suffering from lung cancer; assay: Absorbance measurement of substrate hydrolysis in urine from subjects with lung cancer; details: for absorbance (Results of absorbance analysis): 405 nm, 37° C., 60 minutes, pH 8.0, triplicate
Experimental: (§1) The activity of the novel compounds according to the invention was studied in a group of 20 subjects diagnosed with lung cancer using the representative compound according to the invention. […] The remaining compounds according to the invention are characterized by the analogous mechanism of action. For this purpose, the representative compound according to the invention, ABZ^1-Tyr^2-Ile^3-Phe^4-Arg^5-ANB^6-NH2, was dissolved in dimethyl sulfoxide (at a concentration of 0.5 mg/mL) and then 50 μL of the solution was mixed with 120 μL of a buffer (200 mM Tris-HCl, pH 8.0) and 80 μL of urine from a subject suffering from lung cancer. The measurement was performed on a 96-well plate designed for measuring absorbance and each sample was analysed in triplicate at the temperature of 37° C. The duration of the measurement was 60 minutes. During the measurement, the wavelength characteristic for the chromophore (ANB-NH2) being released was monitored at the wavelength 405 nm (range 380-430 nm).

[2] = system: urine samples taken from healthy persons; assay: Absorbance measurement of substrate hydrolysis in urine from healthy subjects; details: for absorbance (Results of absorbance analysis): healthy person, 405 nm, 37° C., 60 minutes, pH 8.0, triplicate
[3] = system: urine samples from patients with diagnosed cancers; assay: Selectivity of substrate cleavage in urine from patients with different cancers
Text: Arabic numerals indicate the numbers of given cancer types. The samples tested for each type of cancer were derived from 20 different patients for each of the tested cancers. The results are mean values for given cancer types.
as §1
Furthermore, the dependence of the cleavage selectivity of the substrate, i.e. the compound according to the invention, on the cancer being examined, was studied. […]

ABZ-Tyr-Ile-Phe-Arg-ANB-NH2 ([2Abz]YIFR-{Benzoyl(5-NH,2-NO2)-NH2}) [chromogenic/fluorogenic FRET peptide substrate, ABZ = 2-aminobenzoic acid, ANB-NH2 = amide of 5-amino-2-nitrobenzoic acid]
cleavage of the substrate ([1]; all samples 1-50 from persons suffering from lung cancer): underwent cleavage | efficiency of cleavage of the substrate ([1]; samples 7 and 16 compared with samples 50 or 42 (FIG. 2)): less efficiently | absorbance (Results of absorbance analysis) ([1]; urine sample 7, lung cancer): 0.0015 and 0.0017 and 0.002 | absorbance (Results of absorbance analysis) ([1]; urine sample 8, lung cancer): 0.0032 and 0.0031 and 0.0036 | absorbance (Results of absorbance analysis) ([1]; urine sample 9, lung cancer): 0.026 and 0.0294 and 0.025 | absorbance (Results of absorbance analysis) ([1]; urine sample 10, lung cancer): 0.0403 and 0.0738 and 0.056 | absorbance (Results of absorbance analysis) ([1]; urine sample 11, lung cancer): 0.0195 and 0.019 and 0.0188 | absorbance (Results of absorbance analysis) ([1]; urine sample 12, lung cancer): 0.0056 and 0.0068 and 0.0062 | absorbance (Results of absorbance analysis) ([1]; urine sample 13, lung cancer): 0.063 and 0.0633 and 0.0632 | absorbance (Results of absorbance analysis) ([1]; urine sample 14, lung cancer): 0.018 and 0.0176 and 0.0179 | absorbance (Results of absorbance analysis) ([1]; urine sample 15, lung cancer): 0.015 and 0.0139 and 0.0146 | absorbance (Results of absorbance analysis) ([1]; urine sample 16, lung cancer): 0.0015 and 0.0016 and 0.002 | absorbance (Results of absorbance analysis) ([1]; urine sample 17, lung cancer): 0.0096 and 0.0095 and 0.0102 | absorbance (Results of absorbance analysis) ([1]; urine sample 18, lung cancer): 0.0104 and 0.019 and 0.0156 | absorbance (Results of absorbance analysis) ([1]; urine sample 20, lung cancer): 0.0443 and 0.0299 and 0.036 | absorbance (Results of absorbance analysis) ([1]; urine sample 21, lung cancer): 0.0215 and 0.022 and 0.0256 | absorbance (Results of absorbance analysis) ([1]; urine sample 22, lung cancer): 0.0301 and 0.0349 and 0.035 | absorbance (Results of absorbance analysis) ([1]; urine sample 23, lung cancer): 0.0732 and 0.0483 and 0.065 | absorbance (Results of absorbance analysis) ([1]; urine sample 25, lung cancer): 0.0703 and 0.0549 and 0.062 | absorbance (Results of absorbance analysis) ([1]; urine sample 26, lung cancer): 0.149 and 0.1049 and 0.103 | absorbance (Results of absorbance analysis) ([1]; urine sample 27, lung cancer): 0.1005 and 0.1078 and 0.106 | absorbance (Results of absorbance analysis) ([1]; urine sample 28, lung cancer): 0.0613 and 0.0765 and 0.072 | absorbance (Results of absorbance analysis) ([1]; urine sample 29, lung cancer): 0.0203 and 0.0218 and 0.025 | absorbance (Results of absorbance analysis) ([1]; urine sample 30, lung cancer): 0.1595 and 0.1543 and 0.156 | absorbance (Results of absorbance analysis) ([1]; urine sample 31, lung cancer): 0.0346 and 0.0306 and 0.036 | absorbance (Results of absorbance analysis) ([1]; urine sample 32, lung cancer): 0.01457 and 0.0186 and 0.0159 | absorbance (Results of absorbance analysis) ([1]; urine sample 33, lung cancer): 0.07 and 0.0625 and 0.0687 | absorbance (Results of absorbance analysis) ([1]; urine sample 34, lung cancer): 0.0421 and 0.0243 and 0.036 | absorbance (Results of absorbance analysis) ([1]; urine sample 35, lung cancer): 0.0402 and 0.0714 and 0.0632 | absorbance (Results of absorbance analysis) ([1]; urine sample 36, lung cancer): 0.0046 and 0.0057 and 0.00498 | absorbance (Results of absorbance analysis) ([1]; urine sample 37, lung cancer): 0.058 and 0.065 and 0.062 | absorbance (Results of absorbance analysis) ([1]; urine sample 38, lung cancer): 0.0194 and 0.01741 and 0.0185 | absorbance (Results of absorbance analysis) ([1]; urine sample 40, lung cancer): 0.0572 and 0.03085 and 0.0469 | absorbance (Results of absorbance analysis) ([1]; urine sample 41, lung cancer): 0.0138 and 0.0163 and 0.0156 | absorbance (Results of absorbance analysis) ([1]; urine sample 42, lung cancer): 0.1543 and 0.1976 and 0.175 | absorbance (Results of absorbance analysis) ([1]; urine sample 43, lung cancer): 0.0366 | absorbance (Results of absorbance analysis) ([2]; urine sample 1Z): 0.00000 | absorbance (Results of absorbance analysis) ([2]; urine sample 2Z): 0.00000 | absorbance (Results of absorbance analysis) ([2]; urine sample 3Z): 0.00000 | absorbance (Results of absorbance analysis) ([2]; urine sample 4Z): 0.00000 | absorbance (Results of absorbance analysis) ([2]; urine sample 5Z): 0.00000 | absorbance (Results of absorbance analysis) ([2]; urine sample 6Z): 0.00000 | absorbance (Results of absorbance analysis) ([2]; urine sample 7Z): 0.00000 | absorbance (Results of absorbance analysis) ([2]; urine sample 8Z): 0.00000 | absorbance (Results of absorbance analysis) ([2]; urine sample 9Z): 0.00000 | absorbance (Results of absorbance analysis) ([2]; urine sample 10Z): 0.00000 | absorbance (Results of absorbance analysis) ([2]; urine sample 11Z): 0.00000 | absorbance (Results of absorbance analysis) ([2]; urine sample 12Z): 0.00000 | absorbance (Results of absorbance analysis) ([2]; urine sample 13Z): 0.00000 | absorbance (Results of absorbance analysis) ([2]; urine sample 14Z): 0.00000 | absorbance (Results of absorbance analysis) ([2]; urine sample 15Z): 0.00000 | absorbance (Results of absorbance analysis) ([2]; urine sample 16Z): 0.00000 | absorbance (Results of absorbance analysis) ([2]; urine sample 17Z): 0.00000 | absorbance (Results of absorbance analysis) ([2]; urine sample 18Z): 0.00000 | absorbance (Results of absorbance analysis) ([2]; urine sample 19Z): 0.00000 | absorbance (Results of absorbance analysis) ([2]; urine sample 20Z): 0.00000 | absorbance (Results of absorbance analysis) ([2]; urine sample 21Z): 0.00000 | absorbance (Results of absorbance analysis) ([2]; urine sample 22Z): 0.00000 | absorbance (Results of absorbance analysis) ([2]; urine sample 23Z): 0.00000 | absorbance (Results of absorbance analysis) ([2]; urine sample 24Z): 0.00000 | absorbance (Results of absorbance analysis) ([2]; urine sample 25Z): 0.00000 | increase in absorbance / hydrolysis ([2]; urine samples from healthy persons 1Z to 25Z): does not lead to an increase in absorbance | selectivity of hydrolysis of the substrate ([3]; lung cancer urine (sample 1) vs other neoplastic disease (samples 2-9), FIG. 3, mean values): selectivity of substrate cleavage in the case of urine from patients with lung cancer | cleavage / increase in absorbance ([3]; samples from patients with testicular, intestine, kidney, prostate, pancreatic, bile duct, lung, ovarian, and rectum cancer): is not subject to cleavage
